Results on 4 molecules are retold here after patent US5225426A, “Thiazolidine-2,4-dione compound and method of treatment of diabetic complications” (Terumo Kabushiki Kaisha, priority 1990, dated 1993).

Molecules are shown by their SMILES. Bounds are passed on as bounds.

Series [1] addresses T1, aldose reductase (Rattus norvegicus, UniProt P07943).
T1 construct: From the crystalline lens, aldose reductase was prepared; from tissue; host or cells: crystalline lens of five-week old male Wistar rat
Briefly: Determination of Aldose Reductase-inhibiting Activity. Type of series: biochemical, Wistar type male rat (crystalline lens). As to conditions: rat lens enzyme; 0.1 mM DL-glyceraldehyde, 0.03 mM NADPH, pH 7.0, 30° C., 30 minutes; read-out: 50% inhibition concentration (IC50). The protocol:
A five-week old Wistar type male rat was sacrificed under anesthesia and immediately dissected to remove crystalline lens. From the crystalline lens, aldose reductase was prepared by following the Hyman et al's method [J. Biol. Chem., 240, 877-882 (1965)] with necessary modifications. The aldose reductase activity was determined by the Dufrane et al's method [Biochem. Med., 32, 99-105 (1984)]. In 400 μl of a 135 mM sodium-potassium phosphate buffer solution (pH 7.0) prepared in advance so as to contain 100 mM lithium sulfate, 0.03 mM NADPH (reducing type nicotinamide adenine dinucleotide phosphate), and 0.1 mM DL-glyceraldehyde as a substrate, 50 μl of the aforementioned aldose reductase and 50 μl of a sample of a varying concentration (having Compound 1, or Compound 2, or Compound 3 dissolved in ethanol) added thereto were left reacting at 30° C. for 30 minutes. Then, the reaction was stopped by addition of 0.15 ml of 0.5N hydrochloric acid. The NADP (oxide type nicotinamide adenine dinucleotide phosphate) produced by the reaction in the reaction mixture was converted into a fluorescent substance by the addition thereto of 0.5 ml of 6N sodium hydroxide containing 10 mM imidazole. After the elapse of 60 minutes following the conversion, the produced reaction mixture was tested for intensity of fluorescence. The intensity of fluorescence was determined by the use of a fluorescence tester (produced by Corona Denki K.K. and marketed under trademark designation of "MTP-100F Corona Microplate Reader") under the conditions of 360 nm of excitation wavelength and 460 nm of fluorescent wavelength. The intensity of fluorescence determined by repeating the procedure described above, except ethanol was added in the place of the sample was used as a control value. As the aldose reductase inhibiting activity of a sample, the concentration of the sample required for inhibiting 50% of the aldose reductase activity due to a decline of the intensity of fluorescence (i.e. 50% inhibition concentration: IC50 value) was obtained.

Series [2] has as its system blood sugar. Briefly: Blood sugar drop ratio in streptozotocin diabetic rats. Type of series: in vivo, Wistar type male rats. The conditions noted are these: oral, four days, blood 3 hours after administration. The protocol: (§1) Groups each of five three-week old Wistar type male rats were used for the test. To the rats, streptozotocin was administered at a concentration of 65 mg/kg via the tail vein. Of these rats, those whose blood sugar values fell in the range of from 250 to 650 mg/dl one week after the administration were designated as diabetic rats. As a control medicine, Compound 4 represented by the formula VII was used. [drawing 9]
(§2) The five groups, i.e. the group of untreated diabetic rats, the group of rats subjected to administration of control medicine (50 mg/kg×2/day), the group of rats subjected to administration of sample (100 mg/kg/day), and the group of normal rats, were tested. A given medicine was suspended in 5% gum arabic and orally administered continually for four days after the elapse of two weeks following the onset of diabetes. To the group of untreated diabetic rats and the group of normal rats, a 5% gum arabic solution […] was administered in a ratio of 10 ml/kg. After the elapse of three hours following the administration, the blood was extracted from each rat with the aid of heparin via the tail vein (for the determination of blood sugar) and the abdominal aorta.
The PRC was tested for sorbitol content by the Malon et al's method [Diabetes, 29, 861-864 (1980)]. The determination of the blood sugar value was carried out by the alucose-oxidase method.
The blood sugar drop ratio and the sorbitol accumulation inhibition ratio were calculated in accordance with Formula 1 and Formula 2.
Blood sugar drop ratio (%)=(1-[(Average blood sugar value of the group of rats subjected to administration of sample or control medicine-Average blood sugar value of the group of normal rats)/(Average blood sugar value of the group of untreated diabetic rats-Average blood sugar value of the group of normal rats)])×100

Series [3] can be described thus: in vivo. As to conditions: mouse, oral, ICR type male mice (five-week old). The method, then: The compounds 1, 2 and 3 of this invention were tested for acute toxicity by oral administration thereof to ICR type male mice (five-week old).
The test system of series [4] is Sorbitol in Red Blood Cells. Briefly: Action to Curb Accumulation of Sorbitol in Red Blood Cells (streptozotocin diabetic rats). As to conditions: control medicine 50 mg/kg×2/day, oral, four days; packed red cells, blood 3 hours after administration. Type of series: in vivo, Wistar type male rats. The protocol: as §1
as §2, with “aorta. […]” for “aorta.”
The blood sugar drop ratio and the sorbitol accumulation inhibition ratio were calculated in accordance with Formula 1 and Formula 2. […]

As usually defined, the LD50 is the dose at which mortality reaches 50%. As to `O=C1NC(=O)C(Cc2ccc(C(=O)C=Cc3ccc(O)c(O)c3)cc2)S1` (centres unmarked) [Compound 1, 5-{4-[3-(3,4-dihydroxyphenyl)-2-propenoyl]benzyl}thiazolidine-2,4-dione], in series [1], the IC50 is 520 nM. Moreover, the “Blood sugar drop ratio” value in series [2] (sample 100 mg/kg/day) was found to be 46.8%. In series [3], the median lethal dose (LD50) was at least 1000 mg/kg.
On the same counts, the results for `COc1cc(C=CC(=O)c2ccc(CC3SC(=O)NC3=O)cc2)ccc1O` (centres unmarked) [Compound 2, 5-{4-[3-(4-hydroxy-3-methoxyphenyl)-2-propenoyl]benzyl}thiazolidine-2,4-dione] are 4200 nM, 60.5% and at least 1000 mg/kg.
The matching figures for `COc1cc(C=CC(=O)c2cccc(CC3SC(=O)NC3=O)c2)ccc1O` (centres unmarked) [Compound 3, 5-{3-[3-(4-hydroxy-3-methoxyphenyl)-2-propenoyl]benzyl}thiazolidine-2,4-dione]: 1900 nM, 42.6% and at least 1000 mg/kg.
Consider `CC(=Cc1ccccc1)C=C1SC(=S)N(CC(=O)O)C1=O` [Compound 4, reference compound], for which the “Blood sugar drop ratio” value in series [2] (control medicine 50 mg/kg×2/day) amounted to 7.2%. Further, in series [4], the “Sorbitol accumulation inhibition ratio” value worked out at 90.3%.
